Experimental findings from PubChem BioAssay AID1259407 (Chemical Carcinogenesis Research Information System (CCRIS), 2018) are described below.

The source made the active and inactive calls. The rule behind the calls is not given here.

The subject of the data set is CCRIS mutagenicity, Ames/micronucleus/aberration tests. Kind of data set: CCRIS mutagenicity studies.
Where [1] appears, read: Test System: AMES SALMONELLA TYPHIMURIUM, Strain/Indicator: TA98, Metabolic Activation: HAMSTER, LIVER, S-9, AROCLOR 1254 (10%), Method: PREINCUBATION
Where [2] appears, read: Test System: AMES SALMONELLA TYPHIMURIUM, Strain/Indicator: TA98, Metabolic Activation: NONE, Method: PREINCUBATION
Setting [3] is: Test System: AMES SALMONELLA TYPHIMURIUM, Strain/Indicator: TA98, Metabolic Activation: RAT, LIVER, S-9, AROCLOR 1254 (10%), Method: PREINCUBATION
Where [4] appears, read: Test System: AMES SALMONELLA TYPHIMURIUM, Strain/Indicator: TA100, Metabolic Activation: NONE, Method: PREINCUBATION
[5] abbreviates: Test System: AMES SALMONELLA TYPHIMURIUM, Strain/Indicator: TA1535, Metabolic Activation: HAMSTER, LIVER, S-9, AROCLOR 1254 (10%), Method: PREINCUBATION
The mark [6] stands for this setting: Test System: AMES SALMONELLA TYPHIMURIUM, Strain/Indicator: TA1535, Metabolic Activation: NONE, Method: PREINCUBATION
[7] abbreviates: Test System: AMES SALMONELLA TYPHIMURIUM, Strain/Indicator: TA1535, Metabolic Activation: RAT, LIVER, S-9, AROCLOR 1254 (10%), Method: PREINCUBATION
[8] abbreviates: Test System: AMES SALMONELLA TYPHIMURIUM, Strain/Indicator: TA1537, Metabolic Activation: HAMSTER, LIVER, S-9, AROCLOR 1254 (10%), Method: PREINCUBATION
Setting [9] is: Test System: AMES SALMONELLA TYPHIMURIUM, Strain/Indicator: TA1537, Metabolic Activation: NONE, Method: PREINCUBATION
Where [10] appears, read: Test System: AMES SALMONELLA TYPHIMURIUM, Strain/Indicator: TA1537, Metabolic Activation: RAT, LIVER, S-9, AROCLOR 1254 (10%), Method: PREINCUBATION
Where [11] appears, read: Test System: AMES SALMONELLA TYPHIMURIUM, Strain/Indicator: TA98, Metabolic Activation: RAT, LIVER, S-9, AROCLOR 1254, Method: STANDARD PLATE.
The mark [12] stands for this setting: Test System: AMES SALMONELLA TYPHIMURIUM, Strain/Indicator: TA98, Metabolic Activation: NONE, Method: STANDARD PLATE.
Setting [13] is: Test System: AMES SALMONELLA TYPHIMURIUM, Strain/Indicator: TA100, Metabolic Activation: RAT, LIVER, S-9, AROCLOR 1254, Method: STANDARD PLATE.

As for `COc1ccc(C(=O)c2ccccc2O)c(O)c1`, the mutagenic call under setting [1] is “inactive; negative”; the mutagenic call under setting [2] is “inactive; negative”; the mutagenic call under setting [3] was “inactive; negative”; the mutagenic call (Test System: AMES SALMONELLA TYPHIMURIUM, Strain/Indicator: TA100, Metabolic Activation: HAMSTER, LIVER, S-9, AROCLOR 1254 (10%), Method: PREINCUBATION) is “inactive; negative”; the mutagenic call under setting [4] is “inactive; negative”; the mutagenic call (Test System: AMES SALMONELLA TYPHIMURIUM, Strain/Indicator: TA100, Metabolic Activation: RAT, LIVER, S-9, AROCLOR 1254 (10%), Method: PREINCUBATION) is “inactive; negative”. The mutagenic call by setting is: under setting [5], “inactive; negative”; under setting [6], “inactive; negative”; under setting [7], “inactive; negative”; under setting [8], “active; positive”; under setting [9], “inactive; negative”; under setting [10], “active; positive”.

Regarding `CCN(CC)CC(O)CNc1c2ccc([N+](=O)[O-])cc2nc2cc(OC)c(OC)cc12` (configuration not stated), the mutagenic call is, setting by setting: (Test System: Escherichia coli, Strain/Indicator: CC107 (G6 to B7 frameshifts), Metabolic Activation: None, Method: Modified preincubation) “active; positive”; (Test System: Escherichia coli, Strain/Indicator: CC108 (G6 to G5 frameshifts), Metabolic Activation: None, Method: Modified preincubation) “active; positive”; (Test System: Escherichia coli, Strain/Indicator: CC109 (CG5 to CG4 frameshifts), Metabolic Activation: None, Method: Modified preincubation) “active; positive”; (Test System: Escherichia coli, Strain/Indicator: CC111 (A7 to A6 frameshifts), Metabolic Activation: None, Method: Modified preincubation) “inactive; negative”.

As to `CC(=O)Nc1cc2c(cc1OC(C)=O)-c1ccccc1C2`, the mutagenic call under setting [11] was “inactive; negative”.

As to `O=C(c1ccc(-c2ccccc2)cc1)C1OC1c1ccccc1` (configuration not stated), the mutagenic call under setting [12] is “inactive; negative”; the mutagenic call under setting [11] was “inactive; negative”; the mutagenic call (Test System: AMES SALMONELLA TYPHIMURIUM, Strain/Indicator: TA100, Metabolic Activation: NONE, Method: STANDARD PLATE) was “inactive; negative”; the mutagenic call under setting [13] is “inactive; negative”.

With `COc1nsc2cc([N+](=O)[O-])ccc12`, the mutagenic call under setting [12] is “active; positive”.

Regarding `C=CCn1cc2c3c(cccc31)C1C[C@@H](C)CN(C#N)[C@@H]1C2` (some centres not stated), the mutagenic call under setting [13] is “active; positive”.

Regarding `[CH]#[W]`, the mutagenic call (End Point: IN VITRO MICRONUCLEUS, Test System: HUMAN LYMPHOCYTES, Metabolic Activation: NONE) was “active; positive”.

In the case of `O=C1N(CO)C(O)C(O)N1CO` (configuration not stated), the mutagenic call by setting is: (Test System: AMES SALMONELLA TYPHIMURIUM, Strain/Indicator: TA98, Metabolic Activation: HAMSTER, LIVER, AROCLOR 1254 (10%), Method: PREINCUBATION) “inactive; negative”; under setting [1], “inactive; negative”; under setting [3], “inactive; negative”; under setting [4], “inactive; negative”; under setting [5], “inactive; negative”; under setting [6], “inactive; negative”. For the same compound, the mutagenic call was “inactive; negative” under setting [7], “inactive; negative” under setting [8], “inactive; negative” under setting [9] and “inactive; negative” under setting [10].

Take `OC1=c2c(O)cc3cccc4ccc(c2c43)C23CCCCC12O3` (configuration not stated): the mutagenic call (Test System: CHINESE HAMSTER V-79, Strain/Indicator: V-79/8-AZAGUANINE, Metabolic Activation: NONE, Method: STANDARD PLATE) was “active; positive”.

`Cc1cc(-c2ccc(N/N=C3/C(=O)c4c(N)cc(S(=O)(=O)O)cc4C=C3S(=O)(=O)O)c(C)c2)ccc1N/N=C1/C(=O)c2c(N)cc(S(=O)(=O)O)cc2C=C1S(=O)(=O)O`: the mutagenic call (Test System: AMES SALMONELLA TYPHIMURIUM, Strain/Indicator: TA98, Metabolic Activation: HAMSTER, LIVER, S-9, Method: PREINCUBATION (PRIVAL METHOD)) is “active; positive”; the mutagenic call (Test System: AMES SALMONELLA TYPHIMURIUM, Strain/Indicator: TA100, Metabolic Activation: HAMSTER, LIVER, S-9, Method: PREINCUBATION (PRIVAL METHOD)) is “active; positive”; the mutagenic call (Test System: AMES SALMONELLA TYPHIMURIUM, Strain/Indicator: TA1538, Metabolic Activation: NONE, Method: STANDARD PLATE) is “inactive; negative”; the mutagenic call (Test System: Ames Salmonella typhimurium, Strain/Indicator: TA98, Metabolic Activation: Rat, Liver, S-9, Sodium phenobarbitone, Method: Preincubation) is “inactive; negative, test conducted under both aerobic and anaerobic conditions”; the mutagenic call (Test System: Ames Salmonella typhimurium, Strain/Indicator: TA1538, Metabolic Activation: Rat, Liver, S-9, Sodium phenobarbitone, Method: Preincubation) was “inactive; negative, test conducted under both aerobic and anaerobic conditions”; the mutagenic call (Test System: Mouse lymphoma, Strain/Indicator: L5178Y (tk+/tk-), Metabolic Activation: None, Method: Suspension/plate) was “inactive; negative”. Moreover, the mutagenic call (Test System: Mouse lymphoma, Strain/Indicator: L5178Y (tk+/tk-), Metabolic Activation: Rat, Liver, S-9, Aroclor 1254, Method: Suspension/plate) is “inactive; negative”.

In the case of `CC1CC(C)C(=O)C1=O` (configuration not stated), the mutagenic call is, setting by setting: under setting [2], “inactive; negative”; (Test System: AMES SALMONELLA TYPHIMURIUM, Strain/Indicator: TA98, Metabolic Activation: S-9, Method: PREINCUBATION) “inactive; negative”; under setting [4], “inactive; negative”; (Test System: AMES SALMONELLA TYPHIMURIUM, Strain/Indicator: TA100, Metabolic Activation: S-9, Method: PREINCUBATION) “inactive; negative”; under setting [6], “inactive; negative”; (Test System: AMES SALMONELLA TYPHIMURIUM, Strain/Indicator: TA1535, Metabolic Activation: S-9, Method: PREINCUBATION) “inactive; negative”. For the same compound, the mutagenic call under setting [9] was “inactive; negative”; the mutagenic call (Test System: AMES SALMONELLA TYPHIMURIUM, Strain/Indicator: TA1537, Metabolic Activation: S-9, Method: PREINCUBATION) is “inactive; negative”; the mutagenic call (Test System: E.COLI, Strain/Indicator: WP2 UVRA, Metabolic Activation: NONE, Method: PREINCUBATION) is “inactive; negative”; the mutagenic call (Test System: E.COLI, Strain/Indicator: WP2 UVRA, Metabolic Activation: S-9, Method: PREINCUBATION) is “inactive; negative”.
